In patent US7923465B2, “Cannabinoid receptor ligands, pharmaceutical compositions containing them, and process for their preparation” (priority 2005, dated 2011):

Biological target: hCB2 (Homo sapiens, UniProt P34972)
Sequence (P34972 whole entry): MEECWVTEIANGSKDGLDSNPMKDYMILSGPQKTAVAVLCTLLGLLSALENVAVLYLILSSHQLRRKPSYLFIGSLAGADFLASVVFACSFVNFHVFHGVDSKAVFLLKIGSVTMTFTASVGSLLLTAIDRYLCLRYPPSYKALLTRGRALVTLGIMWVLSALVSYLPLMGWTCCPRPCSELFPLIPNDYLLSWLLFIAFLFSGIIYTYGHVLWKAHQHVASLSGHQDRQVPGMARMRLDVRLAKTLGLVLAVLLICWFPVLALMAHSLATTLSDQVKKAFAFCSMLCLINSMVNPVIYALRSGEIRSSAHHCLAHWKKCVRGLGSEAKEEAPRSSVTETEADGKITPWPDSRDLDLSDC
Assay: In vitro binding assay using hCB2-CHO membranes, [3H]-CP-55,940 displacement (Protocol IV)
Set-up: expressed in transfected cells; host or cells: CHO (hCB2-CHO, generated in-house)
Conditions: 1 h, read-out: % Displacement Protocol IV
Description: IV. Protocol for In Vitro Assay Using hCB2-CHO Membranes:
In this assay, [^3H]-CP-55,940 was used as the radioligand to bind human CB2 receptor expressed on the membranes from CHO cells (hCB2-CHO cell line was generated in-house) which can be displaced by unlabeled ligands having affinity to the CB2 receptor.
The assay was performed according to the modified method of Ross et al., 1999 (Br. J. Pharmacol. 128, 735-743). The reaction was set up in a total volume of 200 μl in PEI (0.2%) precoated Millipore GFB filter plates. 1 mM stocks of test compounds were prepared in DMSO and tested at a final concentration of 300 nM. The non-specific binding was determined by 0.5 μM CP-55, 940. The total reaction mixture contained Tris-BSA buffer (50 mM Tris, 5 mM MgCl2, 1 mM EDTA, pH 7.4 with 0.1% BSA), unlabelled CP-55, 940 (0.5 μM) or test samples, [^3H]-CP-55, 940 (0.75 nM) and 25-50 μg of human CB2 receptor preparation. The assay mixture (with or without the test compound) was incubated at 30° C. for 1 hour. The reaction was stopped by rapid filtration under vacuum and the radioactivity on the filters was measured by liquid scintillation counting.
The percent (%) displacement by a test ligand was calculated by comparing the specific bound values.
Molecule `CC(C)(C)NC(=O)c1nn(-c2ccc(Br)cc2)c2c1C1CCC2C1` (stereo not drawn) [Example 324, N(3)-(tert-Butyl)-1-(4-bromophenyl)-4,5,6,7-tetrahydro-1H-4,7-methano-indazole-3-carboxamide] has an inhibition at 0.3 µM of 88.5%.
In the case of `O=C(NC12CC3CC(CC(C3)C1)C2)c1nn(-c2ccc(F)cc2F)c2c1C1CCC2C1` (stereo not drawn) [Example 334, N(3)-(Adamantan-1yl)-1-(2,4-difluorophenyl)-4,5,6,7-tetrahydro-1H-4,7-methano-indazole-3-carboxamide], the inhibition at 0.3 µM is reported as 100%.
In the case of `CCCCCn1nc2c(c1C(=O)NC(C)(C)c1ccccc1)C1CC3CC(CC2C3)C1` [Example 190a, N(7)-(1-Methyl-1-phenylethyl)-6-pentyl-5,6-diazatetracyclo[7.3.1.1^3,11.0^4,8]tetradeca-4,7-diene-7-carboxamide], the inhibition at 0.3 µM is reported as 0%.
In the case of `CC(C)(C)NC(=O)c1nn(Cc2ccc(F)cc2)c2c1C1CCC2C1` (stereo not drawn) [Example 335a, N(3)-(tert-butyl)-1-(4-fluorobenzyl)-4,5,6,7-tetrahydro-1H-4,7-methano-indazole-3-carboxamide], the inhibition at 0.3 µM is reported as 96.5%.

Same assay, conditions: 1 h; hCB2-CHO membranes, [3H]-CP-55,940 displacement; read-out: % Displacement Protocol IV
In the case of `CC(C)(C)NC(=O)C1C2=C(NN1Cc1ccc(F)cc1)C1CCC2C1` (stereo not drawn) [Example 335b, N(3)-(tert-butyl)-2-(4-fluorobenzyl)-4,5,6,7-tetrahydro-1H-4,7-methano-indazole-3-carboxamide], the inhibition at 0.3 µM is reported as 8.7%.
Molecule `CC(C)(C)NC(=O)c1nn(-c2ccc(Cl)cc2)c2c1C1CCC2C1` (stereo not drawn) [Example 321, N(3)-(tert-Butyl)-1-(4-chlorophenyl)-4,5,6,7-tetrahydro-1H-4,7-methano-indazole-3-carboxamide] has an inhibition at 0.3 µM of 92.9%.
`CC(C)(NC(=O)c1nn(-c2ccc(Cl)cc2Cl)c2c1C1CCC2c2ccccc21)c1ccccc1` (stereo not drawn) [Example 508, N12-(1-Methyl-1-phenylethyl)-10-(2,4-dichlorophenyl)-10,11-diazatetracyclo[6.5.2.0^2,7.0^9,13]pentadeca-2,4,6,9(13),11-pentaene-12-carboxamide] showed an inhibition at 0.3 µM of 67.7%.
In the case of `CC(NC(=O)c1nn(-c2ccc(F)cc2F)c2c1C1CC3CC(C1)CC2C3)c1ccccc1Cl` (stereo not drawn) [Example 151, N(7)-[1-(2-Chlorophenyl)ethyl]-5-(2,4-difluorophenyl)-5,6-diazatetracyclo[7.3.1.1^3,11.0^4,8]tetradeca-4(8),6-diene-7-carboxamide], the inhibition at 0.3 µM is reported as 69.2%.
For `CCOc1cc(F)ccc1-n1nc(C(=O)NC(C)(C)C)c2c1C1CCC2C1` (stereo not drawn) [Example 329, N(3)-(tert-Butyl)-1-(2-ethoxy,4-fluorophenyl)-4,5,6,7-tetrahydro-1H-4,7-methano-indazole-3-carboxamide], the inhibition at 0.3 µM was 88.5%.
`O=C(NCc1ccco1)c1nn(-c2ccc(F)cc2F)c2c1C1CCC2C1` (stereo not drawn) [Example 330, N(3)-(2-furylmethyl)-1-(2,4-difluorophenyl)-4,5,6,7-tetrahydro-1H-4,7-methano-indazole-3-carboxamide] showed an inhibition at 0.3 µM of 64.9%.
Work on `CC(C)(C)NC(=O)c1n[nH]c2c1C1(c3ccc(Cl)c(Cl)c3)CCC2C1` (stereo not drawn) [Example 325, N(3)-(tert-Butyl)-4-(3,4-dichlorophenyl)-4,5,6,7-tetrahydro-1H-4,7-methano-indazole-3-carboxamide] yielded an inhibition at 0.3 µM of 99.6%.
For `CC(C)(C)NC(=O)c1nn(-c2ccc(Cl)cc2Cl)c2c1C1CCC2C1` (stereo not drawn) [Example 327, N(3)-(tert-Butyl)-1-(2,4-dichlorophenyl)-4,5,6,7-tetrahydro-1H-4,7-methano-indazole-3-carboxamide], the inhibition at 0.3 µM was 100%.
`CC12CCC(C1)C(C)(C)C2NC(=O)c1nn(-c2ccc(Cl)cc2Cl)c2c1C1CCC2c2ccccc21` (stereo not drawn) [Example 507, N12-(1,3,3-Trimethylbicyclo[2.2.1]hept-2-yl)-10-(2,4-dichlorophenyl)-10,11-diazatetracyclo[6.5.2.0^2,7.0^9,13]pentadeca-2(7),3,5,9(13),11-pentaene-12-carboxamide] showed an inhibition at 0.3 µM of 91.7%.
Molecule `O=C(NCc1ccccc1Cl)c1nn(-c2ccc(F)cc2F)c2c1C1CCC2C1` (stereo not drawn) [Example 297, N5-(2-Chlorobenzyl)-3-(2,4-difluorophenyl)-3,4-diazatricyclo[5.2.1.0^2,6]deca-2(6),4-diene-5-carboxamide] has an inhibition at 0.3 µM of 70.3%.
Work on `O=C(N[C@H](CO)c1ccc(F)cc1)c1nn(-c2ccc(F)cc2F)c2c1C1CCC2C1` (stereo partly drawn) [Example 332, N(3)-[(1S)-2-Hydroxy-1-(4-fluorophenyl)ethyl]-1-(2,4-difluorophenyl)-4,5,6,7-tetrahydro-1H-4,7-methano-indazole-3-carboxamide] yielded an inhibition at 0.3 µM of 70.1%.
For `O=C(NCc1ccccc1Cl)c1nn(-c2ccc(Cl)cn2)c2c1C1CC3CC(C1)CC2C3` [Example 185, N7-(2-Chlorobenzyl)-5-(5-chloro-2-pyridyl)-5,6-diazatetracyclo[7.3.1.1^3,11.0^4,8]tetradeca-4(8),6-diene-7-carboxamide], the inhibition at 0.3 µM was 60.7%.
For `Cc1ccc(CN2NC3=C(C4CCC3C4)C2C(=O)NC(C)(C)C)cc1` (stereo not drawn) [Example 336b, N(3)-(tert-butyl)-2-(4-methylbenzyl)-4,5,6,7-tetrahydro-1H-4,7-methano-indazole-3-carboxamide], the inhibition at 0.3 µM was 26.5%.
For `CC(NC(=O)c1nn(-c2ccc(Cl)cc2)c2c1C1CC3CC(C1)CC2C3)c1ccccc1Cl` (stereo not drawn) [Example 138, N7-[1-(2-Chlorophenyl)ethyl]-5-(4-chlorophenyl)-5,6-diazatetracyclo[7.3.1.1^3,11.0^4,8]tetradeca-4(8),6-diene-7-carboxamide], the inhibition at 0.3 µM was 68%.
`CN1CCN(NC(=O)c2nn(-c3ccc(F)cc3F)c3c2C2CCC3C2)CC1` (stereo not drawn) [Example 318, N(3)-(4-methylpiperazino)-1-(2,4-difluorophenyl)-4,5,6,7-tetrahydro-1H-4,7-methano-indazole-3-carboxamide] gave an inhibition at 0.3 µM of 31%.
With `O=C(Nc1ccc(O)cc1)c1nn(-c2ccc(F)cc2F)c2c1C1CCC2C1` (stereo not drawn) [Example 328, N(3)-(4-Hydroxyphenyl)-1-(2,4-difluorophenyl)-4,5,6,7-tetrahydro-1H-4,7-methano-indazole-3-carboxamide] the inhibition at 0.3 µM was 64.4%.

Same assay, conditions: hCB2-CHO membranes, [3H]-CP-55,940 displacement
With `COC(=O)[C@H](CC(C)C)NC(=O)c1nn(-c2ccc(F)cc2F)c2c1C1CCC2C1` (stereo partly drawn) [Example 333, Methyl-(2S)-2-[5-(2,4-difluorophenyl)-4,5-diazatricyclo[5.2.1.0.^2,6]deca-2(6),3-dien-3-ylcarboxamido]-4-methylpentanoate] the “% Displacement Protocol IV” value was 100.00%.
In the case of `CC(C)(C)NC(=O)c1nn(-c2ccc(F)cc2F)c2c1C1CCC2c2ccccc21` (stereo not drawn) [Example 702, N(12)-tert-Butyl-10-(2,4-difluorophenyl)-10,11-diazatetracyclo[6.5.2.0^2,7.0^9,13]tetradeca-2,4,6,9(13),11-pentaene-12-carboxamide], the “% Displacement Protocol IV” value is reported as 33.00%.
For `O=C(NCc1cccs1)c1nn(-c2ccc(F)cc2F)c2c1C1CCC2C1` (stereo not drawn) [Example 331, N(3)-(2-thiophenemethyl)-1-(2,4-difluorophenyl)-4,5,6,7-tetrahydro-1H-4,7-methano-indazole-3-carboxamide], the “% Displacement Protocol IV” value was 75.26%.
With `CC(C)(C)NC(=O)c1nn(-c2ccc(F)cc2F)c2c1[C@H]1CC[C@]2(C)C1(C)C` [Example 411, (4S,7R)—N(3)-tert-Butyl-1-(2,4-difluorophenyl)-7,8,8-trimethyl-4,5,6,7-tetrahydro-1H-methano-indazole-3-carboxamide] the “% Displacement Protocol IV” value was 49.68%.
For `CC12CCC(c3c(C(=O)N[C@@H](CO)c4ccccc4)nn(-c4ccc(F)cc4F)c31)C2(C)C` (stereo partly drawn) [Example 410], the “% Displacement Protocol IV” value was 15.5%.

Tested on: not given
Assay: not given
Conditions: not given
`O=C(NCc1c(F)cccc1F)c1nn(-c2ccc(Cl)cc2Cl)c2c1C1CCC2C1` (stereo not drawn) [Example 248, N(3)-(2,6-Difluorobenzyl)-1-(2,4-dichlorophenyl)-4,5,6,7-tetrahydro-1H-4,7-methano-indazole-3-carboxamide] gave a melting point of 130 to 133 °C.
With `CC12CCC(c3c(C(=O)Nc4ccccc4)nn(-c4ccc(Cl)cc4Cl)c31)C2(C)C` (stereo not drawn) [Example 401, N(3)-Phenyl-1-(2,4-dichlorophenyl)-7,8,8-trim ethyl-4,5,6,7-tetrahydro-1H-4,7-methano-indazole-3-carboxamide] the melting point was 112 to 115 °C.
For `O=C(NCc1c(F)cccc1F)c1nn(-c2ccc(Cl)cc2)c2c1C1CC3CC(C1)CC2C3` [Example 115, N(7)-(2,6-Difluorobenzyl)-5-(4-chlorophenyl)-5,6-diazatetracyclo[7.3.1.1^3,11.0^4,8]tetradeca-4(8),6-diene-7-carboxamide], the melting point was 166 to 167 °C.
Molecule `C[C@@H](NC(=O)c1nn(-c2ccc(F)cc2F)c2c1C1CCC2C1)c1ccccc1` (stereo partly drawn) [Example 293, N(3)-(R-1-phenylethyl)-1-(2,4-difluorophenyl)-4,5,6,7-tetrahydro-1H-4,7-methano-indazole-3-carboxamide] has a melting point of 40 to 45 °C.
With `O=C(NNc1ccccc1F)c1nn(-c2ccc(Br)cc2)c2c1C1CCC2C1` (stereo not drawn) [Example 278, N(3)-[(2-Fluorophenyl)amino]-1-(4-bromophenyl)-4,5,6,7-tetrahydro-1H-4,7-methano-indazole-3-carboxamide] the melting point was 123 °C.
